Laboratory results from ChEMBL document CHEMBL1201861, “Genomics of Drug Sensitity in Cancer screening data, Wellcome Trust Sanger Institute”.

Legend:
Assay in all cases: cells
HCC2218 = type: functional, cell-based; conditions: Homo sapiens;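 further: cell viability assay read-out, with IC50 given as the concentration that inhibits growth of the cell line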
Description: SANGER: Inhibition of human HCC2218 cell growth in a cell viability assay.

KINGS-1 = type: functional, cell-based, Homo sapiens; conditions: Homo sapiens, KINGS-1;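 further: cell viability assay measuring suppression of KINGS-1 cell growth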
Description: SANGER: Inhibition of human KINGS-1 cell growth in a cell viability assay.

LS-411N = type: functional, cell-based, Homo sapiens; conditions: Homo sapiens, LS-411N
HCC 2998 = type: functional, cell-based, Homo sapiens; conditions: Homo sapiens, HCC 2998;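 further: growth inhibition of human HCC2998 cells, measured with a cell viability read-out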
Description: SANGER: Inhibition of human HCC2998 cell growth in a cell viability assay.

DOHH-2 = type: functional, cell-based; conditions: Homo sapiens;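 further: growth inhibition of human DOHH-2 cells, read out with a cell viability assay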
Description: SANGER: Inhibition of human DOHH-2 cell growth in a cell viability assay.

MZ7-mel = type: functional, cell-based, Homo sapiens; conditions: Homo sapiens, MZ7-mel;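 further: growth inhibition of human MZ7-mel cells, measured by a cell viability assay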
Description: SANGER: Inhibition of human MZ7-mel cell growth in a cell viability assay.

Mo = type: functional, cell-based; conditions: Homo sapiens
Description: SANGER: Inhibition of human Mo-T cell growth in a cell viability assay.

HD-MY-Z = type: functional, cell-based, Homo sapiens; conditions: Homo sapiens, HD-MY-Z;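 further: growth inhibition of HD-MY-Z cells, read out with a cell viability assay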
Description: SANGER: Inhibition of human HD-MY-Z cell growth in a cell viability assay.

HOP-62 = type: functional, cell-based, Homo sapiens; conditions: Homo sapiens, HOP-62;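 further: cell growth inhibition determined with a viability assay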
Description: SANGER: Inhibition of human HOP-62 cell growth in a cell viability assay.

LB2518-MEL = type: functional, cell-based, Homo sapiens; conditions: Homo sapiens, LB2518-MEL;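 further: growth inhibition of human LB2518-MEL cells, measured with a cell viability assay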
Description: SANGER: Inhibition of human LB2518-MEL cell growth in a cell viability assay.

NCI-H1395 = type: functional, cell-based, Homo sapiens; conditions: Homo sapiens, NCI-H1395;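 further: cell viability assay read-out quantifying reduced proliferation of human NCI-H1395 cells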
Description: SANGER: Inhibition of human NCI-H1395 cell growth in a cell viability assay.

Calu-6 = type: functional, cell-based, Homo sapiens; conditions: Homo sapiens, Calu-6;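 further: growth of human Calu-6 cells, read out by a cell viability assay, IC50 marking inhibition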
Description: SANGER: Inhibition of human Calu-6 cell growth in a cell viability assay.

KS-1 = type: functional, cell-based, Homo sapiens; conditions: Homo sapiens, KS-1;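 further: growth inhibition of KS-1 cells, read out with a cell viability assay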
Description: SANGER: Inhibition of human KS-1 cell growth in a cell viability assay.

C8166 = type: functional, cell-based; conditions: Homo sapiens;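 further: growth inhibition of human C8166 cells measured by a cell viability assay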
Description: SANGER: Inhibition of human C8166 cell growth in a cell viability assay.

MLMA = type: functional, cell-based, Homo sapiens; conditions: Homo sapiens, MLMA;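 further: growth inhibition of MLMA cells (human), determined through a cell viability readout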
Description: SANGER: Inhibition of human MLMA cell growth in a cell viability assay.

SK-NEP-1 = type: functional, cell-based; conditions: Homo sapiens;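 further: growth inhibition of human SK-NEP-1 cells, read out by a cell viability assay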
Description: SANGER: Inhibition of human SK-NEP-1 cell growth in a cell viability assay.

LXF-289 cell line = type: functional, cell-based, Homo sapiens; conditions: Homo sapiens, LXF-289
Description: SANGER: Inhibition of human LXF-289 cell growth in a cell viability assay.

BB49-HNC = type: functional, cell-based, Homo sapiens; conditions: Homo sapiens, BB49-HNC;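 further: cell viability assay read-out, reported as inhibition of BB49-HNC cell growth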
Description: SANGER: Inhibition of human BB49-HNC cell growth in a cell viability assay.

SNU-5 = type: functional, cell-based; conditions: Homo sapiens;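 further: cell viability readout used to measure growth inhibition in human NCI-SNU-5 cells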
Description: SANGER: Inhibition of human NCI-SNU-5 cell growth in a cell viability assay.

KALS-1 = type: functional, cell-based, Homo sapiens; conditions: Homo sapiens, KALS-1;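 further: growth inhibition of KALS-1 cells, determined with a cell viability assay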
NCI-H2126 = type: functional, cell-based, Homo sapiens; conditions: Homo sapiens, NCI-H2126;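 further: growth inhibition of the cancer cell line, determined with a cell viability readout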
Description: SANGER: Inhibition of human NCI-H2126 cell growth in a cell viability assay.

CW-2 = type: functional, cell-based, Homo sapiens; conditions: Homo sapiens, CW-2;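 further: growth inhibition of CW-2 cells, read out by a cell viability assay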
Description: SANGER: Inhibition of human CW-2 cell growth in a cell viability assay.

EW-24 = type: functional, cell-based; conditions: Homo sapiens;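 further: human EW-24 cancer cell line, growth inhibition read out via a cell viability assay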
Description: SANGER: Inhibition of human EW-24 cell growth in a cell viability assay.

IST-SL1 = type: functional, cell-based, Homo sapiens; conditions: Homo sapiens, IST-SL1;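 further: growth inhibition of human IST-SL1 cells, read out with a cell viability assay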
Description: SANGER: Inhibition of human IST-SL1 cell growth in a cell viability assay.

JAR = type: functional, cell-based, Homo sapiens; conditions: Homo sapiens, JAR;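 further: growth inhibition of human JAR cells determined with a cell viability assay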

SMILES	IC50 (HCC2218)	IC50 (KINGS-1)	IC50 (LS-411N)	IC50 (HCC 2998)	IC50 (DOHH-2)	IC50 (MZ7-mel)	IC50 (Mo)	IC50 (HD-MY-Z)	IC50 (HOP-62)	IC50 (LB2518-MEL)	IC50 (NCI-H1395)	IC50 (Calu-6)	IC50 (KS-1)	IC50 (C8166)	IC50 (MLMA)	IC50 (SK-NEP-1)	IC50 (LXF-289 cell line)	IC50 (BB49-HNC)	IC50 (SNU-5)	IC50 (KALS-1)	other results
CCc1nc(N)nc(N)c1-c1ccc(Cl)cc1 [PYRIMETHAMINE]	> 20 µM	> 20 µM	0.837 µM	5.78 µM	> 20 µM	7.56 µM	> 20 µM	11.9 µM	5.02 µM	> 20 µM	> 20 µM	> 20 µM	> 20 µM	> 20 µM	> 20 µM	1.24 µM	> 20 µM	> 20 µM	> 20 µM	12 µM	IC50 (NCI-H2126): > 20 µM; IC50 (CW-2): > 20 µM; IC50 (EW-24): > 20 µM; IC50 (IST-SL1): 16.1 µM; IC50 (JAR): > 20 µM
CNC(=O)c1cc(Oc2ccc(NC(=O)Nc3ccc(Cl)c(C(F)(F)F)c3)cc2)ccn1 [SORAFENIB]	3.12 µM	> 4 µM	> 4 µM	0.888 µM	> 4 µM	3.66 µM	> 4 µM	> 4 µM	0.851 µM	1.21 µM	> 4 µM	> 4 µM	3.88 µM	> 4 µM	> 4 µM	> 4 µM	> 4 µM	> 4 µM	> 4 µM	> 4 µM	IC50 (NCI-H2126): > 4 µM; IC50 (CW-2): > 4 µM; IC50 (EW-24): > 4 µM; IC50 (IST-SL1): > 4 µM; IC50 (JAR): > 4 µM
O=C(/C=C/c1ccccc1)NC(NC(=S)Nc1cccc2cccnc12)C(Cl)(Cl)Cl (stereo not given) [SALUBRINAL]	> 16 µM	> 16 µM	> 16 µM	> 16 µM	10.2 µM	> 16 µM	> 16 µM	> 16 µM	> 16 µM	7.97 µM	> 16 µM	> 16 µM	> 16 µM	> 16 µM	> 16 µM	> 16 µM	11.2 µM	> 16 µM	> 16 µM	> 16 µM	IC50 (NCI-H2126): > 16 µM; IC50 (CW-2): > 16 µM; IC50 (EW-24): > 16 µM; IC50 (IST-SL1): > 16 µM; IC50 (JAR): > 16 µM
